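Method: 48-hour compound exposure of cells in 96-well plates, five concentrations, linear interpolation of endpoints. TGI: concentration producing complete growth inhibition.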
Key:
Assay in all cases: DTP human tumour cell line panel, 48 h
A498 renal = test system: A498 renal
CAKI-1 renal = test system: CAKI-1 renal
COLO 205 colon = test system: COLO 205 colon
HCC-2998 colon = test system: HCC-2998 colon
HL-60(TB) leukemia = test system: HL-60(TB) leukemia
HOP-92 NSCLC = test system: HOP-92 NSCLC
HT29 colon = test system: HT29 colon
MALME-3M melanoma = test system: MALME-3M melanoma
NCI-H226 lung = test system: NCI-H226 lung
NCI-H522 lung = test system: NCI-H522 lung
OVCAR-3 ovarian = test system: OVCAR-3 ovarian
OVCAR-4 ovarian = test system: OVCAR-4 ovarian
SF-539 CNS = test system: SF-539 CNS
SK-OV-3 ovarian = test system: SK-OV-3 ovarian
SNB-19 CNS = test system: SNB-19 CNS
LOX IMVI melanoma = test system: LOX IMVI melanoma
NCI-H23 lung = test system: NCI-H23 lung
OVCAR-8 ovarian = test system: OVCAR-8 ovarian
SF-268 CNS = test system: SF-268 CNS
SNB-75 CNS = test system: SNB-75 CNS

Compound | TGI (A498 renal) | TGI (CAKI-1 renal) | TGI (COLO 205 colon) | TGI (HCC-2998 colon) | TGI (HL-60(TB) leukemia) | TGI (HOP-92 NSCLC) | TGI (HT29 colon) | TGI (MALME-3M melanoma) | TGI (NCI-H226 lung) | TGI (NCI-H522 lung) | TGI (OVCAR-3 ovarian) | TGI (OVCAR-4 ovarian) | TGI (SF-539 CNS) | TGI (SK-OV-3 ovarian) | TGI (SNB-19 CNS) | TGI (LOX IMVI melanoma) | TGI (NCI-H23 lung) | TGI (OVCAR-8 ovarian) | TGI (SF-268 CNS) | TGI (SNB-75 CNS)
Nc1ccc(Oc2ccc(C3(c4ccc(Oc5ccc(N)c(O)c5)cc4)C4CC5CC(C4)CC3C5)cc2)cc1O | 31 µM | 5.03 µM | 1.72 µM | 3.01 µM | 5.3 µM | 8.94 µM | 4.4 µM | 3.92 µM | 3.62 µM | 3.06 µM | 3.35 µM | 24.9 µM | 2.35 µM | 7.1 µM | 7.6 µM | – | – | – | – | –
COC(=O)C(Cc1ccc2c(c1)OCO2)(NC(=O)c1ccccc1)P(=O)(OC)OC (stereo not given) | > 100 µM | > 100 µM | > 100 µM | > 100 µM | > 100 µM | > 100 µM | > 100 µM | – | > 100 µM | > 100 µM | – | > 100 µM | > 100 µM | > 100 µM | > 100 µM | > 100 µM | > 100 µM | > 100 µM | > 100 µM | > 100 µM
CC(C)OP(=O)(OC(C)C)C(=Nc1ccc(N=C(NNc2ccc([N+](=O)[O-])cc2)P(=O)(OC(C)C)OC(C)C)cc1)NNc1ccc([N+](=O)[O-])cc1 | > 100 µM | > 100 µM | > 100 µM | – | > 100 µM | > 100 µM | – | > 100 µM | > 100 µM | > 100 µM | > 100 µM | > 100 µM | > 100 µM | – | > 100 µM | > 100 µM | > 100 µM | > 100 µM | > 100 µM | > 100 µM
CCOC(=O)/C(C#N)=c1/s/c(=C(\O)N/N=C/c2ccc(OC)cc2)c(=N)n1-c1ccccc1 | – | – | > 100 µM | > 100 µM | > 100 µM | > 100 µM | > 100 µM | – | > 100 µM | > 100 µM | > 100 µM | – | > 100 µM | > 100 µM | > 100 µM | – | > 100 µM | > 100 µM | > 100 µM | 27.2 µM
O=c1cc(O)c1=O | > 100 µM | > 100 µM | > 100 µM | > 100 µM | > 100 µM | > 100 µM | > 100 µM | > 100 µM | > 100 µM | > 100 µM | > 100 µM | > 100 µM | > 100 µM | > 100 µM | > 100 µM | > 100 µM | > 100 µM | > 100 µM | > 100 µM | > 100 µM

Source: PubChem BioAssay (NCI)
